Measured values: ChEMBL document CHEMBL1201862, “PubChem BioAssay data set” (2004)
Activity calls are given as the source filed them.

Assays:
fMet-Leu-Phe receptor = fMet-Leu-Phe receptor (Homo sapiens, UniProt P21462); test: formyl peptide receptor binders – dose response (AID 519); format: functional
[1] = potency of ADAM10 substrate cleavage blockers – biochemical, QFRET, dose response (AID 743254);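 also: ADAM10 enzyme with the DM2 quenched FRET peptide as substrate; EDANS fluorescence gain as the protease cuts the substrate; inhibitor potency against ADAM10 proteolytic activity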
[2] = molecular target: Disintegrin and metalloproteinase domain-containing protein 17 (Homo sapiens, UniProt P78536); test: inhibition of ADAM17 substrate cleavage – biochemical, quenched FRET substrate, counter-screen for ADAM10 exosite inhibitor project, dose response (AID 743253)
Chain of Disintegrin and metalloproteinase domain-containing protein 17 (P78536 whole entry, the tested form may be a part): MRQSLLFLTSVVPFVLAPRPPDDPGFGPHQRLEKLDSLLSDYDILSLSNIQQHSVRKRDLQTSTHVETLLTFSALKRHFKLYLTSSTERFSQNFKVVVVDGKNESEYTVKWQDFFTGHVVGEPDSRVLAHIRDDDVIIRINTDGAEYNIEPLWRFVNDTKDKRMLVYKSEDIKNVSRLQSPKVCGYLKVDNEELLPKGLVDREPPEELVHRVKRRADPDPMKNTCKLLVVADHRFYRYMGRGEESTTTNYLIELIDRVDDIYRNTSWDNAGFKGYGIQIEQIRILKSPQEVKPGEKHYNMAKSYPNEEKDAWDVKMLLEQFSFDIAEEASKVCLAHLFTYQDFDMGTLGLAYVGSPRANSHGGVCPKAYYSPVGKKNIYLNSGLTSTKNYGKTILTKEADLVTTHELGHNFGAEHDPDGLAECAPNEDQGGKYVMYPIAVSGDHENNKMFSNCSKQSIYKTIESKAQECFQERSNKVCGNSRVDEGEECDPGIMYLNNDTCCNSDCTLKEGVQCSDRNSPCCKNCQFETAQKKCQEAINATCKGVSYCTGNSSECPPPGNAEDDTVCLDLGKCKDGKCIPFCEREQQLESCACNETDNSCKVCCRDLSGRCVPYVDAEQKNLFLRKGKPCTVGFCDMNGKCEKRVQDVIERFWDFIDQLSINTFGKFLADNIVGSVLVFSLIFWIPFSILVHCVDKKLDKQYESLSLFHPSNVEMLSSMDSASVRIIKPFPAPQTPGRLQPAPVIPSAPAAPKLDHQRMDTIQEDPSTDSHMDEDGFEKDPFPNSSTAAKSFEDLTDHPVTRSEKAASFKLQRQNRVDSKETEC

[3] = Counterscreen for inhibitors of Trypanosoma brucei methionyl tRNA synthetase (MetRS): Luminescence-based cell-based high throughput dose response assay to identify compounds that are cytotoxic to Jurkat human T lymphocyte cells.; format: functional
[4] = Luminescence Cell-Based Dose Confirmation HTS to Identify Activators of 5'UTR Stem-Loop Driven Alpha-Synuclein mRNA Translation in H4 Neuroglioblastoma Cells. [Related pubchem assays: 1829 (Project Summary), 1814 (Primary HTS)]; format: functional
H4 = test: Luminescence Cell-Based Dose Response HTS to Identify Activators of 5'UTR Stem-Loop Driven Prion Protein mRNA Translation in H4 Neuroglioblastoma Cells. [Related pubchem assays: 1829 (Project Summary), 1814 (Primary HTS)]; format: functional; conditions: Homo sapiens
[5] = Luminescence Cell-Based Dose Response HTS to Identify Activators of Luciferase Translation or Activity in H4 […] Cells. [Related pubchem assays: 1829 (Project Summary), 1814 (Primary HTS)]; format: functional
[6] = molecular target: T1, Methionyl-tRNA synthetase, putative (Trypanosoma brucei brucei, UniProt Q38C91); format: functional, Trypanosoma brucei brucei strain 927/4 GUTat10.1;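 also: Read-out by fluorescence polarization, run as a confirmatory high-throughput counterscreen; potency of MetRS inhibitors measured by reduced AMP formation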
T1 sequence (Q38C91 whole entry): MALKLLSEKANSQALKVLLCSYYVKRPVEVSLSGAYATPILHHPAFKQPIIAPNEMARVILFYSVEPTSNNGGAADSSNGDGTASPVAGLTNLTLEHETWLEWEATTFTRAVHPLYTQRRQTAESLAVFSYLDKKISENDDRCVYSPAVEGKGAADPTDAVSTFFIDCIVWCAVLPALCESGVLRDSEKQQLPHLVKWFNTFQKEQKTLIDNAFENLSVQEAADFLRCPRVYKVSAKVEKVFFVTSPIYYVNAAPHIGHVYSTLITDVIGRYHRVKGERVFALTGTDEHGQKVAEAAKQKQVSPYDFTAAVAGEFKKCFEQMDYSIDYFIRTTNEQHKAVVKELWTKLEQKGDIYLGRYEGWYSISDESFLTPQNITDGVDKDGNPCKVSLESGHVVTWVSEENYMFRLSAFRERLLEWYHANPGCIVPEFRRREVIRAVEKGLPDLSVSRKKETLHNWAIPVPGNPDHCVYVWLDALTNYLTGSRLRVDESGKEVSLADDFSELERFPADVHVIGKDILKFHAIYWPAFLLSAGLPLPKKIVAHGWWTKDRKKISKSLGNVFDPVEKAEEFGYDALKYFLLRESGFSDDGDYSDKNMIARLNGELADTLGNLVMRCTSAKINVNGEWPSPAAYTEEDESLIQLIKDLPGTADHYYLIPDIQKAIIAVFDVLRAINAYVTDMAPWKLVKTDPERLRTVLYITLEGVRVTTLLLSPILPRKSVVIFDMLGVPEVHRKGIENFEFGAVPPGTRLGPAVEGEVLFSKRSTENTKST

[7] = molecular target: T2, Corticotropin-releasing factor receptor 2/Corticotropin-releasing factor-binding protein (Homo sapiens, UniProt P24387+Q13324); test: activators of CRF receptor 2 with binding protein – uHTS hits, confirmation (AID 602473); format: functional; conditions: read-out: EC50_Mean
T2 sequence (Q13324 whole entry): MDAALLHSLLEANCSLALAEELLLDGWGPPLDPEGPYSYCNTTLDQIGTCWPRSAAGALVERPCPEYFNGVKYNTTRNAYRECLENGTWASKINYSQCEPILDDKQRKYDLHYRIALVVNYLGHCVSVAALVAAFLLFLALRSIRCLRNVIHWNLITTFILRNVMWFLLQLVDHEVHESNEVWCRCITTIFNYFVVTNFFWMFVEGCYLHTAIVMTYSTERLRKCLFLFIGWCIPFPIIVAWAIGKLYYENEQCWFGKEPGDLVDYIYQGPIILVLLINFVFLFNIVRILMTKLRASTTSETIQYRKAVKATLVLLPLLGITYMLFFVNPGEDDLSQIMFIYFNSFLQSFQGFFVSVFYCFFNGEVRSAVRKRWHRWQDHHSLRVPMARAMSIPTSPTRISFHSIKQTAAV
T2 sequence (P24387 whole entry): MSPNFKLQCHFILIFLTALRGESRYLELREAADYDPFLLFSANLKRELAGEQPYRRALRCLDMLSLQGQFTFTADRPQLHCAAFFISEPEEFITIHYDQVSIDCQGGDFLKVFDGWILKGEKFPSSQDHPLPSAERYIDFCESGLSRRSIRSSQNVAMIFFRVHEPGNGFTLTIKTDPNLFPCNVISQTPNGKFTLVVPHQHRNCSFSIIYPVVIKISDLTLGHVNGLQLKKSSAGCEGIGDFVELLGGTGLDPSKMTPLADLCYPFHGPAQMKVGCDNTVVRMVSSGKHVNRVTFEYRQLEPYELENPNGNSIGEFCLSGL

[8] = molecular target: T3, Scavenger receptor class B member 1 (Mus musculus, UniProt Q61009); test: blockers of DiI-HDL lipid transfer via SR-BI – cell-based, ldlA[mSR-BI] CHO, DiI fluorescence, dry powder, set 10, dose response (AID 624029); format: functional
T3 sequence (Q61009 whole entry): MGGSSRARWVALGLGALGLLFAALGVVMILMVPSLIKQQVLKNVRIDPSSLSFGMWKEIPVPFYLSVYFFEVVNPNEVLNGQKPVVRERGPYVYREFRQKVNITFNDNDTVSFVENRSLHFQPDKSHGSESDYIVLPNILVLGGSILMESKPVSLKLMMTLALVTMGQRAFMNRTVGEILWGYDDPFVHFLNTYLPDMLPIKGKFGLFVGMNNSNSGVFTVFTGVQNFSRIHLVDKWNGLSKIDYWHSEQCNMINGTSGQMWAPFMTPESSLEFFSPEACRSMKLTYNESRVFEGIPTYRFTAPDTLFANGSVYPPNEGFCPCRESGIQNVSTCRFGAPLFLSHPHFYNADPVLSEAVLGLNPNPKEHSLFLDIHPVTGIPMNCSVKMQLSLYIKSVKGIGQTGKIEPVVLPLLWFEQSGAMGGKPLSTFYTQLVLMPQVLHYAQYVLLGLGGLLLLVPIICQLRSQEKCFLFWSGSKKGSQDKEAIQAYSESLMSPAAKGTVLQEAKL

[9] = molecular target: T3, Scavenger receptor class B member 1; test: mouse SR-BI DiI-HDL transfer blockers – ldlA[mSR-BI] CHO cells, fluorescence plate reader, dry powder, set 9, dose response (AID 623880); format: functional, cell-based
[10] = molecular target: T4, DNA repair protein RAD52 homolog (Homo sapiens, UniProt P43351); format: functional, biochemical
T4 sequence (P43351 whole entry): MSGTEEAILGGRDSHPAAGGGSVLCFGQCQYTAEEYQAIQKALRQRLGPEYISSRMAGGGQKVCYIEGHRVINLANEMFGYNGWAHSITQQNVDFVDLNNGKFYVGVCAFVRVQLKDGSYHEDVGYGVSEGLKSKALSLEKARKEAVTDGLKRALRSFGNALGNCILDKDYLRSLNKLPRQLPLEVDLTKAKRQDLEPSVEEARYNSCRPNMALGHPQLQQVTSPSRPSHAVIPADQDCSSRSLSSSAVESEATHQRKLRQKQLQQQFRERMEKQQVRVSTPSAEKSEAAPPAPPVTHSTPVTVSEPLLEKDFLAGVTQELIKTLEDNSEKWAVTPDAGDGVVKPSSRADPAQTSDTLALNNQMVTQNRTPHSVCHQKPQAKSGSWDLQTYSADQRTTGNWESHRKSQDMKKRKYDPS

[11] = molecular target: DNA repair and recombination protein RAD54-like (Homo sapiens, UniProt Q92698); test: RAD54 Holliday junction migration blockers – biochemical, fluorescence, cherry-picked samples, dose series, confirmation (AID 651657); format: functional
Chain of DNA repair and recombination protein RAD54-like (Q92698 whole entry): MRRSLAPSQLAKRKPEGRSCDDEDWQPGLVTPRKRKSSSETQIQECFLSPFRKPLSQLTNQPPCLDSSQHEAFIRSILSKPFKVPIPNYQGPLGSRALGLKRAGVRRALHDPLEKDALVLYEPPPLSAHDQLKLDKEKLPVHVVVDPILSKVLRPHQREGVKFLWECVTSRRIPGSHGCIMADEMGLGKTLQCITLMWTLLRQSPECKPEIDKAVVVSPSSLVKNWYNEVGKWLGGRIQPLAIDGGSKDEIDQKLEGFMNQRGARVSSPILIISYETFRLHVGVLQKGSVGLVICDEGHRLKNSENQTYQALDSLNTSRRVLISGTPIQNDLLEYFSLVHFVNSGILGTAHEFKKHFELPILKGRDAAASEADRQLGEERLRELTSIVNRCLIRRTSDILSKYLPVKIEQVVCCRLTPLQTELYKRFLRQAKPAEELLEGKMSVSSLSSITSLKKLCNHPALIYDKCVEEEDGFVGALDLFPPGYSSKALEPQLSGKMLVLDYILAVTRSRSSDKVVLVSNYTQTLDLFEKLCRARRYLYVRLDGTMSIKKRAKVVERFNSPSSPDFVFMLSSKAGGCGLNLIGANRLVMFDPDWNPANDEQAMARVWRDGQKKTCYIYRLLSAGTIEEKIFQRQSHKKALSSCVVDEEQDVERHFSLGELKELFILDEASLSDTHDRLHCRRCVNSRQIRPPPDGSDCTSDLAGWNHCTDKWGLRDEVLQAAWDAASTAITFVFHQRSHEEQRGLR

Cytochrome P450 3A4 = Cytochrome P450 3A4 (Homo sapiens, UniProt P08684);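 also: CYP3A4 tested as one member of a cytochrome P450 panel screen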
Chain of Cytochrome P450 3A4 (P08684 whole entry): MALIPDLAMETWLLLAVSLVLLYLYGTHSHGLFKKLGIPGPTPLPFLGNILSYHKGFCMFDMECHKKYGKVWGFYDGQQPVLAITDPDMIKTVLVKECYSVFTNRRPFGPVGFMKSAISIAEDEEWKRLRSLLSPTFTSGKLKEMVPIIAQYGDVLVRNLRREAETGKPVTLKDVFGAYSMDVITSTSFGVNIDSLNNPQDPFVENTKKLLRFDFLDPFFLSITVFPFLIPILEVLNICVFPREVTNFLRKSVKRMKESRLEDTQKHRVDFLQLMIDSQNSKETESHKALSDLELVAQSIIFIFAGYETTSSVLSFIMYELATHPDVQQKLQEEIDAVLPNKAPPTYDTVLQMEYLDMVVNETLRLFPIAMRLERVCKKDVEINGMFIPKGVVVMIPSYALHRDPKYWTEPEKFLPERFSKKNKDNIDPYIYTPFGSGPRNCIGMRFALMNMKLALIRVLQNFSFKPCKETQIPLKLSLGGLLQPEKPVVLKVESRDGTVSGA

Cytochrome P450 2C9 = Cytochrome P450 2C9 (Homo sapiens, UniProt P11712)
Chain of Cytochrome P450 2C9 (P11712 whole entry): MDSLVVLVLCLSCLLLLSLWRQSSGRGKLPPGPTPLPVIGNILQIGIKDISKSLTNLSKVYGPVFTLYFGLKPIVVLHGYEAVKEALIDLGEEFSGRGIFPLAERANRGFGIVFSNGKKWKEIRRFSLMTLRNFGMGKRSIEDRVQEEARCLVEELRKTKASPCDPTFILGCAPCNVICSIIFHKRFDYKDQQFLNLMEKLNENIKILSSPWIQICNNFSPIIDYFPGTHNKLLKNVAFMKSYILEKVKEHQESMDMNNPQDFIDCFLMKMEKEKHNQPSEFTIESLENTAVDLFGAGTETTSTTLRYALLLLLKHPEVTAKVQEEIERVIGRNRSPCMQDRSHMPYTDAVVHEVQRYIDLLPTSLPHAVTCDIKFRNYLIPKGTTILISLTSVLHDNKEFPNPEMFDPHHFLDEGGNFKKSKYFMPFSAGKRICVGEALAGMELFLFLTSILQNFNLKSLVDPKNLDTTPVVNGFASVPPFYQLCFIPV

cells [12] = format: functional, cell-based
[13] = molecular target: T5, Trace amine-associated receptor 1 (Homo sapiens, UniProt Q96RJ0); test: Fluorescence-based cell-based high throughput dose response assay to identify agonists of the human trace amine associated receptor 1 (TAAR1).; format: functional
T5 sequence (Q96RJ0 whole entry): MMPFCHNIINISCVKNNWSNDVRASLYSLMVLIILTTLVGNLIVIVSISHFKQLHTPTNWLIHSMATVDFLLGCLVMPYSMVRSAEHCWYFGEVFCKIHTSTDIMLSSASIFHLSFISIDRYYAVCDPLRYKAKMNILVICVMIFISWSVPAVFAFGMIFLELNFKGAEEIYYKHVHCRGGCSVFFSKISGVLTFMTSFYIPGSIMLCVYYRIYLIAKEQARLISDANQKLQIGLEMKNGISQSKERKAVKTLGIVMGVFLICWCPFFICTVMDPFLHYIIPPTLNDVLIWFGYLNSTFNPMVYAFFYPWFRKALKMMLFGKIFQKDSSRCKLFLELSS

[14] = molecular target: T5, Trace amine-associated receptor 1; test: Counterscreen for agonists of the human trace amine associated receptor 1 (hTAAR1): Fluorescence-based cell-based high throughput dose response assay to identify hTAAR1 agonist that also desensitize TAAR1 receptor response.; format: functional
cells [15] = format: functional, cell-based; remark: listed apart in the source

Chain of fMet-Leu-Phe receptor (P21462 whole entry): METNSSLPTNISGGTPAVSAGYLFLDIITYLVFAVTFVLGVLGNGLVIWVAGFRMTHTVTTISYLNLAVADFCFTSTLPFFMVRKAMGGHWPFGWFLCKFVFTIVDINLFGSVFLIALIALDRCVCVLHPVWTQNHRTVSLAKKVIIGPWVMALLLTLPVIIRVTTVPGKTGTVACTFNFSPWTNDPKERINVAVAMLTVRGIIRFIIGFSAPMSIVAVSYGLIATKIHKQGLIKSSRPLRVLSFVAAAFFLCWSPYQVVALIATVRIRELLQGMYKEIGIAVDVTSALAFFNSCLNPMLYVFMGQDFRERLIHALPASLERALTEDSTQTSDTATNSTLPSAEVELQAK

In the case of CCOc1ccc(C2C(C(=O)c3ccco3)=C(O)C(=O)N2CCCn2ccnc2)cc1 (stereo not given), the Ki (fMet-Leu-Phe receptor) is reported as 9.9 µM (active).
In the case of O=C(C1CCC(Cn2c(=S)[nH]c3ccccc3c2=O)CC1)N1CCN(c2ccccc2)CC1 (stereo not given), the IC50 [1] is reported as > 69.5 µM (inactive) and the IC50 [2] is reported as > 69.5 µM (inactive).
In the case of Cc1ccc2[nH]c(-c3ccc(SCC(=O)Nc4ccc5c(c4)OCCO5)nc3)nc2c1, the IC50 [3] is reported as 83.3 µM (inactive), the EC50 [4] is reported as 1.13 µM (active) and the EC50 (H4) is reported as 11.3 µM (active). For the same compound, the EC50 [5] was 1.99 µM (active).
With Cc1ccc2nc(-c3ccc(SCC(=O)Nc4ccc5c(c4)OCCO5)nc3)[nH]c2c1 the IC50 [6] was 21.5 µM (inactive).
In the case of O=C1C2C3C=CC(C3)C2C(=O)N1c1cccc(N2C(=O)C3C4C=CC(C4)C3C2=O)n1 (stereo not given), the EC50 [7] is reported as > 53 µM (inactive), the AC50 [8] is reported as > 70 µM (inactive) and the AC50 [9] is reported as 45.2 µM (active).
In the case of Cc1cc(C)c2c(c1)c1nnc(SCCN3CCCCC3)nc1n2C, the AC50 [10] is reported as 6.11 µM (active) and the AC50 [11] is reported as 11 µM (active).
In the case of CCOc1cccc(C(=O)C2=C(O)C(=O)N(Cc3ccco3)C2c2ccncc2)c1 (stereo not given), the Ki (fMet-Leu-Phe receptor) is reported as > 66.7 µM (inactive), the AC50 (Cytochrome P450 3A4) is reported as 22.4 µM (inconclusive) and the AC50 (Cytochrome P450 2C9) is reported as 14.1 µM (inconclusive).
With Cc1cccc(CCNCc2cc3ccc(C)cc3nc2O)c1 the EC50 (cells [12]) was 24.9 µM (inactive), the EC50 [13] was 3.44 µM (active) and the IC50 [14] was 7.79 µM (active). The IC50 (cells [15]) was > 29.9 µM (inactive).
